Reference: patent publication US7446122B2, “Substituted indole derivatives” (Cephalon, Inc., priority 2003, dated 2008)

Experiments:
[1] = tested on: PBL (peripheral blood leukocytes); test: Cell cytotoxicity, MTT assay, PBL; assay type: cell-based; conditions: Leukocyte, 72 h, three days incubation
Method: (§1) Normal prostate cells (PREC, Cambrex East Rutherford N.J.), prostate cancer cell line (LNCaP, ATCC), PBL (peripheral blood leukocytes-buffy coat San Diego Blood Bank), and primary CLL cells were incubated for one to two days in RPMI-1640 and 10% FBS (fetal bovine serum). They were plated in 96-well plates at 100,000 cells/well. Titrated concentrations of the compound to be tested were added to the culture medium. The cells were incubated three days at 37° C., 5% CO2. Viability of the cells was assayed by standard MTT assay. Each drug concentration was done in duplicate. MTT assay: 10 μl of 12 mM 3,[4,5-dimethylthiazol-2-yl]-2,5-diphenyltetrazolium bromide (MTT) (SIGMA) was added to each well. The cells were incubated at 37° C., 5% CO2 for 4 hours. 100 μl of 20% SDS, 0.015M HCl was added to each well and the cells were incubated overnight. The plates were read at absorbance 595 nm.

[2] = tested on: prostate cancer cell line (LNCaP); test: Cell cytotoxicity, MTT assay, LNCaP; assay type: cell-based; conditions: Homo sapiens, 72 h, three days incubation
Method: as §1

primary CLL cells = test: Cell cytotoxicity, MTT assay, primary CLL cells; assay type: cell-based; conditions: 72 h, three days incubation
Method: as §1

COX-1 = biological target: T1, COX-1 (Homo sapiens, UniProt P23219); test: Cox-1 assay: PGE2 formation in human platelets; assay type: cell-based; conditions: compounds are screened at 10 μM
T1 construct: endogenous in cells; host or cells: human platelets
Method: Test compound and/or vehicle is incubated with human platelets (10^8/ml) containing the phospholipase inhibitor MLnFP (100 μM) for 15 minutes at 37° C. Arachidonic acid (100 μM) is then added for a further 15 minute incubation period. The reaction is stopped by addition of 1 N HCl and neutralized with 1N NaOH. PGE2 levels in the supernatant are determined using the Amersham EIA kit. […]

[3] = biological target: T2, Cyclooxygenase-2 (human recombinant, expressed in Sf9 cell) (Homo sapiens, UniProt P35354); test: Cox-2 assay: human recombinant cyclooxygenase-2, PGE2 by EIA; assay type: biochemical; conditions: human recombinant enzyme; compounds are screened at 10 μM
T2 construct: purchased Cayman 60122; host or cells: Sf9 cell
T2 sequence (P35354 18-604): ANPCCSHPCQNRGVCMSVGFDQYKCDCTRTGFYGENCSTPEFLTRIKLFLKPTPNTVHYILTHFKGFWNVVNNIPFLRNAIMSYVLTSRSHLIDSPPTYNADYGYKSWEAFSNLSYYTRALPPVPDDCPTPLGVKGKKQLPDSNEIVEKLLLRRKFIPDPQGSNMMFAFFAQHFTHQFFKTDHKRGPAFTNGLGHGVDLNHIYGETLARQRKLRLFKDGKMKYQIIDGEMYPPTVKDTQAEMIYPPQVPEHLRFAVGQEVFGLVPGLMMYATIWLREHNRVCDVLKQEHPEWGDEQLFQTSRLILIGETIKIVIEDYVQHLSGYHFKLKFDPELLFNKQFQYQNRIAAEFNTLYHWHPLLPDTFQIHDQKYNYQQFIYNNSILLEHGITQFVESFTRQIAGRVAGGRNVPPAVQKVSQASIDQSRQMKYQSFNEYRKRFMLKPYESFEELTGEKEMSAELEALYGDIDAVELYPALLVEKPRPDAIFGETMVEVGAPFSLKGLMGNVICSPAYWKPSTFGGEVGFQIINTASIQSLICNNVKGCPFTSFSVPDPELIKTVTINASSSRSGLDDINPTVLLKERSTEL
Method: Test compound and/or vehicle is pre-incubated with 0.11 U cyclooxygenase-2, 1 mM reduced glutathione (GSH), 500 μM phenol and 1 μM hematin for 15 minutes at 37° C. The reaction is initiated by addition of 0.3 μM arachidonic acid as substrate in Tris-HCl pH 7.7 and terminated after a 5 minute incubation at 37° C. by addition of 1N HCl. Following centrifugation, substrate conversion to PGE2 is measured by an Amersham EIA kit. Compounds are screened at 10 μM. […] J. Physiol.

[4] = tested on: Daudi human Burkitt Lymphoma derived tumors; test: Daudi lymphoma murine xenograft model, efficacy; assay type: in vivo, male SCID mice; conditions: for mean tumor volume at termination of the study: daily Monday to Friday for two weeks, control 1583 mm^3
Method: Male SCID mice, 6-8 weeks of age, obtained from Simonsen Laboratories, Inc. (Gilroy, Calif.) were housed in groups of five.
The Daudi human Burkitt Lymphoma cells were obtained from American Type Culture Collection and were inoculated subcutaneously (1.0×10^7 cells/mouse) on the flanks of SCID mice. After the tumors reached approximately 100 mm^3 treatment was initiated.
Body weights and tumor volume of all mice were measured and recorded twice weekly. Tumors were measured in three dimensions and volume calculated using the formula: […]. Time for the tumors (days) to grow to 4× and 8× the initial volume at dosing were assessed. Study compounds were administered at 125 or 250 mg/kg/day (M-F) via oral gavage until the end of the study.
The efficacy of chlorambucil (2 and 3 mg/kg/d), (R-etodoalc) (400 mg/kg/d) and compound 47 (250 mg/kg/d), compound 26 (250 mg/kg/d), and compound 1 (125 mg/kg/d) against Daudi derived tumors in male SCID mice were studied. R-etodolac and compounds 1, 26 and 47 were prepared in sesame oil. Both chlorambucil (ip, 0.1 ml) and compounds of the invention (per os [p.o.], 0.31 ml) were dosed daily (Monday to Friday) for two weeks. SDX-101 (0.31 ml) was dosed p.o. daily until the end of the study. […] However, all treated mice recovered after Day 2 and maintained their weights. There was no body weight loss observed in other treatment groups. At termination of the study, the control group mean tumor volume was 1583 mm^3. The mean tumor volume of chlorambucil treated groups were 864 and 766 mm^3 with 2 and 3 mg/kg/d chlorambucil treatment, respectively. The mean tumor volume of R-etodolac and compounds 1, […] and 47 were 802, 996, 1011, and 1157 mm^3 with compounds 47, 36, 1 and R-etodolac treatment, respectively. […] At termination of the study, tumor samples along with liver, kidney, and spleen samples from each group were collected and fixed in 10% buffered formalin for histopathology.

T1 sequence (P23219 24-599): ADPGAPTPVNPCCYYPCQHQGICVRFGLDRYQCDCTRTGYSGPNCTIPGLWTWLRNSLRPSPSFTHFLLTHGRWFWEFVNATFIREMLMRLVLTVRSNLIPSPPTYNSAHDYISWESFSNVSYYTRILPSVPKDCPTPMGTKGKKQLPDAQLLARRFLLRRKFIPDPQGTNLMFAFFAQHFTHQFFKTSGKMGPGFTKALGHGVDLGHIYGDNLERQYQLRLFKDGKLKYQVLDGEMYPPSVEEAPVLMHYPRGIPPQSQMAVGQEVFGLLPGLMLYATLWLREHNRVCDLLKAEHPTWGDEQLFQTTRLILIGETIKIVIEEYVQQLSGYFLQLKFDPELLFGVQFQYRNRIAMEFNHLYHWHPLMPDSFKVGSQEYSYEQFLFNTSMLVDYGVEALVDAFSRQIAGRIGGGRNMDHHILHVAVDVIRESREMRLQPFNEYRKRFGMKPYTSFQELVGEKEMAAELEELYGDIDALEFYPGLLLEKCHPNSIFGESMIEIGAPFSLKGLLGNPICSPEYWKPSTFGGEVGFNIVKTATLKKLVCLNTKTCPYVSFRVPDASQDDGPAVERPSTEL

Row | Compound | IC50 [2] [µM] | further results
1 | CCC1(CCO)OCCc2c1[nH]c1cccc(Cl)c21 (stereo not drawn) [Compound 38, 2-(5-CHLORO-1-ETHYL-1,3,4,9-TETRAHYDRO-PYRANO[3,4-b]INDOL-1-YL)-ETHANOL] | 23 | IC50 [1]: 73 µM
2 | CCC1(CCO)OCCc2c1[nH]c1cc(F)ccc21 (stereo not drawn) [Compound 43, 2-(1-ETHYL-7-FLUORO-1,3,4,9-TETRAHYDRO-PYRANO[3,4-b]INDOL-1-YL)-ETHANOL] | 77 | 
3 | CCC1(CCO)OCCc2c1[nH]c1c(Br)cccc21 (stereo not drawn) [Compound 28, 2-(8-BROMO-1-ETHYL-1,3,4,9-TETRAHYDRO-PYRANO[3,4-b]INDOL-1-YL)-ETHANOL] | 25 | 
4 | CCOC(=O)CCc1cc(C(C)C)c2[nH]c3c(c2c1)CCOC3(CC)CCO (stereo not drawn) [Compound 55, ETHYL 3-(1-ETHYL-1,3,4,9-TETRAHYDRO-1-(2-HYDROXYETHYL)-8-ISOPROPYLPYRANO[3,4-B]INDOL-6-YL)PROPANOATE] | 18 | 
5 | CCc1cccc2c3c([nH]c12)C(CCO)(c1ccccc1)OCC3 (stereo not drawn) [Compound 32, 2-(8-ETHYL-1-PHENYL-1,3,4,9-TETRAHYDRO-PYRANO[3,4-b]INDOL-1-YL)-ETHANOL] | 15 | IC50 (primary CLL cells): 250 µM
6 | CCC1(CCO)OCCc2c1[nH]c1c(C)cc(C)cc21 (stereo not drawn) [Compound 45] | 8 | IC50 [1]: 90 µM
7 | CCC1(CCO)OCCc2c1[nH]c1ccccc21 (stereo not drawn) [Compound 22, (1-ETHYL-1,3,4,9-TETRAHYDRO-PYRANO[3,4-b]INDOL-1-YL)-ETHANOL] | 163 | 
8 | CCc1c(Br)ccc2c3c([nH]c12)C(CC)(CCO)OCC3 (stereo not drawn) [Compound 51, 2-(7-BROMO-1,8-DIETHYL-1,3,4,9-TETRAHYDROPYRANO[3,4-b]INDOL-1-YL)ETHANOL] | 10 | 
9 | CCC1(CCO)OCCc2c1[nH]c1ccc(Cl)cc21 (stereo not drawn) [Compound 41, 2-(6-CHLORO-1-ETHYL-1,3,4,9-TETRAHYDRO-PYRANO[3,4-b]INDOL-1-YL)-ETHANOL] | 51 | IC50 (primary CLL cells): 110 µM
10 | CCc1cc(-c2ccc(F)cc2)cc2c3c([nH]c12)C(CC)(CCO)OCC3 (stereo not drawn) [Compound 7] | 12 | inhibition at 10 µM (COX-1): 94%; inhibition at 10 µM [3]: 99%
11 | CCc1cccc2c3c([nH]c12)C(CC)(CC(=O)NC)OCC3 (stereo not drawn) [Compound 33] | 132 | IC50 (primary CLL cells): 98 µM
12 | CCc1cccc2c3c([nH]c12)C(CCO)(C(C)C)OCC3 (stereo not drawn) [Compound 31, 2-(8-ETHYL-1-ISOPROPYL-1,3,4,9-TETRAHYDRO-PYRANO[3,4-b]INDOL-1-YL)-ETHANOL] | 37 | IC50 (primary CLL cells): 244 µM
13 | CCC1(CCO)OCCc2c1[nH]c1c(C(C)C)cc(CCCO)cc21 (stereo not drawn) [Compound 57, 3-(1-ETHYL-1,3,4,9-TETRAHYDRO-1-(2-HYDROXYETHYL)-8-ISOPROPYLPYRANO[3,4-B]INDOL-6-YL)PROPAN-1-OL] | 110 | 
14 | CCc1cccc2c3c([nH]c12)C(CC)(CC(=O)N(C)C)OCC3 (stereo not drawn) [Compound 48] | 60 | IC50 (primary CLL cells): 240 µM
15 | CCCC1(CCO)OCCc2c1[nH]c1c(CC)cccc21 (stereo not drawn) [Compound 30, 2-(8-ETHYL-1-PROPYL-1,3,4,9-TETRAHYDRO-PYRANO[3,4-b]INDOL-1-YL)-ETHANOL] | 100 | 
16 | CCC1(CCO)OCCc2c1[nH]c1c(Cl)cc(Cl)cc21 (stereo not drawn) [Compound 46, 2-(6,8-DICHLORO-1-ETHYL-1,3,4,9-TETRAHYDRO-PYRANO[3,4-b]INDOL-1-YL)-ETHANOL] | 18 | IC50 [1]: 20 µM
17 | O=C(O)CCCc1ccc(N(CCCl)CCCl)cc1 [Chlorambucil, chlorambucil, reference compound] |  | mean tumor volume at termination of the study ([4]; chlorambucil 2 mg/kg/d ip): 864 mm^3; mean tumor volume at termination of the study ([4]; chlorambucil 3 mg/kg/d ip): 766 mm^3; 4× Growth ([4]; time for the tumors to grow to 4× the initial volume at dosing, control 8.9 d): 16 days; 8× Growth ([4]; time for the tumors to grow to 8× the initial volume at dosing, control 14.5 d): 21 days
18 | CCC1(CCO)OCCc2c1[nH]c1ccc(OC)cc21 (stereo not drawn) [Compound 23, 2-(1-ETHYL-6-METHOXY-1,3,4,9-TETRAHYDRO-PYRANO[3,4-b]INDOL-1-YL)-ETHANOL] | 70 | 
19 | CCC1(CCO)OCCc2c1[nH]c1cc(Cl)ccc21 (stereo not drawn) [Compound 44, 2-(7-CHLORO-1-ETHYL-1,3,4,9-TETRAHYDRO-PYRANO[3,4-b]INDOL-1-YL)-ETHANOL] | 60 | 
20 | CCc1cc(-c2ccc3c(c2)OCO3)cc2c3c([nH]c12)C(CC)(CCO)OCC3 (stereo not drawn) [Compound 9] | 10 | inhibition at 10 µM (COX-1): 88%; inhibition at 10 µM [3]: 90%
21 | CCC1(CCO)OCCc2c1[nH]c1c(C(C)C)cc(CCC(=O)O)cc21 (stereo not drawn) [Compound 56, 3-(1-ETHYL-1,3,4,9-TETRAHYDRO-1-(2-HYDROXYETHYL)-8-ISOPROPYLPYRANO[3,4-b]INDOL-6-YL)PROPANOIC ACID] | 235 | 
22 | CCc1cccc2c3c([nH]c12)C1(CCC(CO)CC1)OCC3 (stereo not drawn) [Compound 34, [8′-ETHYL-4′,9′-DIHYDRO-3′H-SPIRO(CYCLOHEXANE-1,1′-PYRANO[3,4-b]INDOL)-4-YL]-METHANOL] | 20 | 
23 | CCc1cc(-c2cc3ccccc3s2)cc2c3c([nH]c12)C(CC)(CCO)OCC3 (stereo not drawn) [Compound 52] | 9 | inhibition at 10 µM (COX-1): 78%; inhibition at 10 µM [3]: 97%
24 | CCC1(CCO)OCCc2c1[nH]c1c(C(C)C)cc(Br)cc21 (stereo not drawn) [Compound 54, 2-(6-BROMO-1-ETHYL-1,3,4,9-TETRAHYDRO-8-ISOPROPYLPYRANO[3,4-b]INDOL-1-yl)ETHANOL] | 7 | 
25 | CCc1cc(-c2ccc(C)cc2)cc2c3c([nH]c12)C(CC)(CCO)OCC3 (stereo not drawn) [Compound 53] | 11 | inhibition at 10 µM (COX-1): 90%; inhibition at 10 µM [3]: 96%
26 | CCC1(CCO)OCCc2c1[nH]c1c(F)cccc21 (stereo not drawn) [Compound 26, 2-(1-ETHYL-8-FLUORO-1,3,4,9-TETRAHYDRO-PYRANO[3,4-b]INDOL-1-YL)-ETHANOL] | 95 | 
27 | CCC1(CCO)OCCc2c1[nH]c1c(C(F)(F)F)cccc21 (stereo not drawn) [Compound 37, 2-(1-ETHYL-8-TRIFLUOROMETHYL-1,3,4,9-TETRAHYDRO-PYRANO[3,4-b]INDOL-1-YL)-ETHANOL] | 60 | 
28 | CCC1(CCO)OCCc2c1[nH]c1ccc(F)cc21 (stereo not drawn) [Compound 40, 2-(1-ETHYL-6-FLUORO-1,3,4,9-TETRAHYDRO-PYRANO[3,4-b]INDOL-1-YL)-ETHANOL] | 80 | IC50 (primary CLL cells): 185 µM
